Reference: patent publication US10464896B2, “Efflux-pump inhibitors and therapeutic uses thereof” (Basilea Pharmaceutica International AG, priority 2015, dated 2019)

test system: E. coli ATCC25922; test: Antibacterial activity in combination with minocycline (growth inhibition); assay type: cell-based; conditions: Escherichia coli, ATCC25922, compound at 25 μM; minocycline 0.25 μg/mL; OD625 23 h minus 1 h; read-out: residual growth of E. coli ATCC25922 (% of uninhibited control) with minocycline
Method in brief: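 Test compound combined with fixed subinhibitory partner antibiotic: linezolid 128 μg/mL for either strain, minocycline 0.25 μg/mL (E. coli) or 8 μg/mL (P. aeruginosa), in caMHB shaken at 37 °C. Residual growth as % of inhibitor-free control, from OD625 at 23 h minus 1 h.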

Row | Structure (SMILES) | activity at 25 µM [%]
1 | C=CCOc1cc(/C=C/c2csc(C(C)C)n2)cc(CNCC2CNC2)c1 [Example 327] | ≤ 10
2 | C=CCOc1cc(/C=C/c2c(C#N)cccc2C(F)(F)F)cc(CNCC2CNC2)c1 [Example 328] | ≤ 10
3 | C=CCOc1cc(/C=C/c2cc(C#N)ccn2)cc(CNCC2CCNC2)c1 (centres unmarked) [Example 329] | ≤ 10
4 | C=CCOc1cc(/C=C/c2csc(C(C)C)n2)cc(CNCC2CCNC2)c1 (centres unmarked) [Example 330] | ≤ 10
5 | CC(C)COc1cc(/C=C/c2ccccn2)cc(CNCC2CCNC2)c1 (centres unmarked) [Example 333] | ≤ 10
6 | CC(C)COc1cc(/C=C/c2ccncc2)cc(CNCC2CCNC2)c1 (centres unmarked) [Example 334] | ≤ 10
7 | C=CCOc1cc(/C=C/c2cccnc2)cc(CNCC2CNC2)c1 [Example 335] | ≤ 10
8 | C=CCOc1cc(/C=C/c2ccccn2)cc(CNCC2CNC2)c1 [Example 336] | ≤ 10
9 | C=CCOc1cc(/C=C/c2ccncc2)cc(CNCC2CNC2)c1 [Example 338] | ≤ 10
10 | C=CCOc1cc(/C=C/c2ccc(C(N)=O)cc2)cc(CNCC2CNC2)c1 [Example 339] | ≤ 10
11 | C=CCOc1cc(/C=C/c2cccc(C(N)=O)c2)cc(CNCC2CNC2)c1 [Example 340] | ≤ 10
12 | Clc1ccc(/C=C/c2cc(CNCC3CCNC3)cc(OCCc3ccccn3)c2)c(Br)c1 (centres unmarked) [Example 341] | ≤ 10
13 | NC(=O)COc1cc(/C=C/c2ccc(Cl)cc2Br)cc(CNCC2CCNC2)c1 (centres unmarked) [Example 342] | ≤ 10
14 | Clc1ccc(/C=C/c2cc(CNCC3CCNC3)cc(OCc3c[nH]cn3)c2)c(Br)c1 (centres unmarked) [Example 344] | ≤ 10
15 | Cn1cnc(COc2cc(/C=C/c3ccc(Cl)cc3Br)cc(CNCC3CCNC3)c2)c1 (centres unmarked) [Example 345] | ≤ 10
16 | Clc1ccc(/C=C/c2cc(CNCC3CCNC3)cc(OCc3ccccn3)c2)c(Br)c1 (centres unmarked) [Example 346] | ≤ 10
17 | Cc1cc(COc2cc(/C=C/c3ccc(Cl)cc3Br)cc(CNCC3CCNC3)c2)no1 (centres unmarked) [Example 347] | ≤ 10
18 | C=CCOc1cc(/C=C/c2nc(C(F)(F)F)cs2)cc(CNCC2CNC2)c1 [Example 348] | ≤ 10
19 | C=CCOc1cc(/C=C/c2ccc(Cl)cc2Br)cc(CNC(=O)C2CCNCC2)c1 [Example 354, N-[[3-allyloxy-5-[(E)-2-(2-bromo-4-chloro-phenyl)vinyl]phenyl]methyl]piperidine-4-carboxamide] | ≤ 10
20 | C=CCOc1cc(/C=C/c2nc(C3CC3)cs2)cc(CNCC2CCNC2)c1 (centres unmarked) [Example 355] | ≤ 10
21 | C=CCOc1cc(/C=C/c2nc(C3CC3)cs2)cc(CNCC2CNC2)c1 [Example 356] | ≤ 10
22 | C=CCOc1cc(CNCC2CCNC2)cc(CNC(=O)c2ccc(C(C)(C)C)cc2)c1 (centres unmarked) [Example 357] | ≤ 10

Row | Structure (SMILES) | activity at 25 µM [%]
23 | Cc1nc(COc2cc(/C=C/c3ccc(Cl)cc3Br)cc(CNCC3CCNC3)c2)cs1 (centres unmarked) [Example 359] | ≤ 10
24 | Clc1ccc(/C=C/c2cc(CNCC3CCNC3)cc(OCc3ccncc3)c2)c(Br)c1 (centres unmarked) [Example 360] | ≤ 10
25 | Nc1nc(COc2cc(/C=C/c3ccc(Cl)cc3Br)cc(CNCC3CCNC3)c2)cs1 (centres unmarked) [Example 361] | ≤ 10
26 | C=CCOc1cc(/C=C/c2nc(C(C)C)cs2)cc(CNCC2CNC2)c1 [Example 362] | ≤ 10
27 | C=CCOc1cc(CNCC2CCNC2)cc(CNS(=O)(=O)c2ccc(C(C)(C)C)cc2)c1 (centres unmarked) [Example 364] | ≤ 10
28 | C=CCOc1cc(/C=C/c2ccc(Cl)cc2Br)cc(CNC(=O)[C@@H]2CCNC2)c1 [Example 367] | ≤ 10
29 | C=CCOc1cc(CNCC2CNC2)cc(CNS(=O)(=O)c2ccc(C(C)(C)C)cc2)c1 [Example 369, N-[[3-allyloxy-5-[(azetidin-3-ylmethylamino)methyl]phenyl]methyl]-4-tert-butyl-benzenesulfonamide] | ≤ 10
30 | C=CCOc1cc(CNCC2CNC2)cc(C(=O)NCc2ccc(Cl)cc2Br)c1 [Example 370] | ≤ 10
31 | C=CCOc1cc(/C=C/c2ccc(Cl)cc2Br)cc(CNC(=O)CNCC2CNC2)c1 [Example 371] | ≤ 10
32 | C=CCOc1cc(CNCC2CCNC2)cc(C(=O)Nc2ccc(Cl)cc2Br)c1 (centres unmarked) [Example 373] | ≤ 10
33 | CC(C)COc1cc(/C=C/c2ccccc2C(N)=O)cc(CNCC2CCNC2)c1 (centres unmarked) [Example 375] | ≤ 10
34 | C=CCOc1cc(CNCC2CNC2)cc(CNC(=O)c2ccc(Cl)cc2Br)c1 [Example 376] | ≤ 10
35 | CC(C)(C)c1ccc(S(=O)(=O)NCc2cc(CNCC3CCNC3)cc(OCCc3c[nH]cn3)c2)cc1 (centres unmarked) [Example 377] | ≤ 10
36 | C=CCOc1cc(CNCC2CCNC2)cc(C(=O)NCc2ccc(Cl)cc2Br)c1 (centres unmarked) [Example 380] | ≤ 10
37 | O=c1[nH]nc(COc2cc(/C=C/c3ccc(Cl)cc3Br)cc(CNCC3CCNC3)c2)o1 (centres unmarked) [Example 381] | ≤ 10
38 | CC(C)COc1cc(C[N+](C)(C)CC2CNC2)cc(OCc2ccc(Cl)cc2Br)c1 [Example 382] | ≤ 10
39 | C=CCOc1cc(C[N+](C)(C)CC2CCNC2)cc(OCc2ccc(Cl)cc2Br)c1 (centres unmarked) [Example 388] | ≤ 10
40 | NC(=O)CCOc1cc(/C=C/c2ccc(Cl)cc2Br)cc(CNCC2CCNC2)c1 (centres unmarked) [Example 390] | ≤ 10
41 | C=CCOc1cc(CNCC2CNC2)cc(C(=O)Nc2nc(C(C)(C)C)cs2)c1 [Example 392] | ≤ 10
42 | C=CCOc1cc(CNCC2CNC2)cc(C(=O)Nc2ccc(Cl)cc2Br)c1 [Example 394, 3-allyloxy-5-[(azetidin-3-ylmethylamino)methyl]-N-(2-bromo-4-chloro-phenyl)benzamide] | ≤ 10
43 | C=CCOc1cc(C[N+](C)(C)CC2CNC2)cc(OCc2ccc(Cl)cc2Br)c1 [Example 395] | ≤ 10
44 | C=CCOc1cc(/C=C/c2ccc(Cl)cc2Br)cc(C[N+](C)(C)CC2CCNC2)c1 (centres unmarked) [Example 396] | ≤ 10

Row | Structure (SMILES) | activity at 25 µM [%]
45 | CC(C)COc1ccc(/C=C/c2ccc(Br)cc2Cl)cc1CNCC1CCNC1 (centres unmarked) [Example 397] | ≤ 10
46 | C[N+](C)(Cc1cc(/C=C/c2ccc(Cl)cc2Br)cc(OCCc2c[nH]cn2)c1)CC1CCNC1 (centres unmarked) [Example 398] | ≤ 10
47 | CC(C)(C)c1ccc(S(=O)(=O)Nc2ccc(CNCC3CCNC3)cc2OCCc2c[nH]cn2)cc1 (centres unmarked) [Example 399, 4-tert-butyl-N-[2-[2-(1H-imidazol-4-yl)ethoxy]-4-[(pyrrolidin-3-ylmethylamino)methyl]phenyl]benzenesulfonamide] | ≤ 10
48 | CC(C)COc1ccc(/C=C/c2ccc(Br)cc2Cl)cc1CNCC1CNC1 [Example 401] | ≤ 10
49 | C=CCOc1cc(/C=C/c2ccc(Cl)cc2Br)cc(C[N+](C)(C)CC2CNC2)c1 [Example 402] | ≤ 10
50 | C=CCOc1ccc(OCc2ccc(Br)cc2Cl)cc1CNCC1CCNC1 (centres unmarked) [Example 405] | ≤ 10
51 | C=CCOc1ccc(OCc2ccc(Br)cc2Cl)cc1CNCC1CNC1 [Example 406] | ≤ 10
52 | C=CCOc1ccc(/C=C/c2ccc(Br)cc2Cl)cc1CNCC1CCNC1 (centres unmarked) [Example 407] | ≤ 10
53 | C[N+](C)(Cc1cc(/C=C/c2ccc(Cl)cc2Br)cc(OCCc2c[nH]cn2)c1)CC1CNC1 [Example 408] | ≤ 10
54 | C=CCOc1ccc(OCc2ccc(Cl)cc2Br)cc1CNCC1CCNC1 (centres unmarked) [Example 412] | ≤ 10
55 | C=CCOc1ccc(OCc2ccc(Cl)cc2Br)cc1CNCC1CNC1 [Example 413] | ≤ 10
56 | CC(C)COc1ccc(OCc2ccc(Cl)cc2Br)cc1CNCC1CCNC1 (centres unmarked) [Example 416] | ≤ 10
57 | C=CCOc1ccc(/C=C/c2ccc(Cl)cc2Br)cc1CNCC1CCNC1 (centres unmarked) [Example 419] | ≤ 10
58 | C=CCOc1ccc(/C=C/c2ccc(Cl)cc2Br)cc1CNCC1CNC1 [Example 421] | ≤ 10
59 | CC(C)COc1ccc(OCc2ccc(Cl)cc2Br)cc1CNCC1CNC1 [Example 422] | ≤ 10
60 | O=c1[nH]nc(CCOc2cc(/C=C/c3ccc(Cl)cc3Br)cc(CNCC3CCNC3)c2)o1 (centres unmarked) [Example 429] | ≤ 10
61 | Cc1noc(C)c1CCOc1cc(/C=C/c2ccc(Cl)cc2Br)cc(CNCC2CCNC2)c1 (centres unmarked) [Example 430] | ≤ 10
62 | CC(C)COc1ccc(/C=C/c2ccc(Cl)cc2Br)cc1CNCC1CCNC1 (centres unmarked) [Example 431] | ≤ 10
63 | Cc1n[nH]c(C)c1CCOc1cc(/C=C/c2ccc(Cl)cc2Br)cc(CNCC2CCNC2)c1 (centres unmarked) [Example 433] | ≤ 10
64 | C=CCOc1cc(/C=C/c2ccc(Cl)cc2Br)cc(CNCC(=O)NCC2CNC2)c1 [Example 443] | ≤ 10

same assay, conditions: Escherichia coli, ATCC25922, compound at 50 μM; minocycline 0.25 μg/mL; OD625 23 h minus 1 h; read-out: residual growth of E. coli ATCC25922 (% of uninhibited control) with minocycline

Row | Structure (SMILES) | activity at 50 µM [%]
65 | Clc1ccc(/C=C/c2cc(CNCC3CCNC3)cc(OCc3ccccn3)c2)c(Br)c1 (centres unmarked) [Example 346] | ≤ 50
66 | O=C(NCc1cc(CNCC2CCNC2)cc(OCCc2c[nH]cn2)c1)c1nc(C2CC2)cs1 (centres unmarked) [Example 391] | ≤ 50
67 | O=C(NCc1cc(CNCC2CCNC2)cc(OCCc2c[nH]cn2)c1)c1ccc(Cl)cc1Br (centres unmarked) [Example 393] | ≤ 50
68 | C=CCOc1cc(CNCC2CNC2)cc(OCCc2ccccn2)c1 [Example 409] | ≤ 50
69 | C=CCOc1cc(CNCC2CCNC2)cc(OCCc2ccccn2)c1 (centres unmarked) [Example 410] | ≤ 50
70 | C=CCOc1cc(CNCC2CNC2)cc(OCCc2cccnc2)c1 [Example 414] | ≤ 50
71 | C=CCOc1cc(CNCC2CCNC2)cc(OCc2cccnc2)c1 (centres unmarked) [Example 417] | ≤ 50
72 | C=CCOc1cc(CNCC2CCNC2)cc(OCCc2cccnc2)c1 (centres unmarked) [Example 418] | ≤ 50
73 | C=CCOc1cc(CNCC2CNC2)cc(OCCc2ccncc2)c1 [Example 423] | ≤ 50
74 | C(=C\c1cc(CNCC2CNC2)cc(OCCc2ccncc2)c1)/c1cccnc1 [Example 438] | ≤ 50
